# Test results from paper PMC4013053, “Identification of Selective Small Molecule Inhibitors of the Nucleotide-Binding Oligomerization Domain 1 (NOD1) Signaling Pathway” (PLoS ONE, 2014).
# Where two headings read alike, the source gives them in different places.
# Columns and labels:
# α1-acid glycoprotein = α1-acid glycoprotein (AGP) binding; type: in vitro ADME
# Source text: (§1) Physicochemical analyses of compounds were completed at GSK.
# [1] = Chromatographic hydrophobicity index (Chrom log D); type: physicochemical; conditions: pH 7.4
# Source text: as §1
# CLND solubility = type: physicochemical; conditions: phosphate buffered saline with 5% DMSO, pH 7.4, aqueous buffer, kinetic from dmso stock; 5% DMSO pH7.4 phosphate buffered saline
# Source text: as §1
# full length human RIP2 = target: T1, full length human RIP2 (Homo sapiens, UniProt O43353); test: RIP2 kinase autophosphorylation (ADP-Glo); type: biochemical; conditions: RIPK2 autophosphorylation
# T1 construct: autophosphorylation of full length human FLAG-6His tagged RIP2 expressed and purified from baculovirus; FLAG; 6His; made in house
# T1 sequence (O43353 whole entry): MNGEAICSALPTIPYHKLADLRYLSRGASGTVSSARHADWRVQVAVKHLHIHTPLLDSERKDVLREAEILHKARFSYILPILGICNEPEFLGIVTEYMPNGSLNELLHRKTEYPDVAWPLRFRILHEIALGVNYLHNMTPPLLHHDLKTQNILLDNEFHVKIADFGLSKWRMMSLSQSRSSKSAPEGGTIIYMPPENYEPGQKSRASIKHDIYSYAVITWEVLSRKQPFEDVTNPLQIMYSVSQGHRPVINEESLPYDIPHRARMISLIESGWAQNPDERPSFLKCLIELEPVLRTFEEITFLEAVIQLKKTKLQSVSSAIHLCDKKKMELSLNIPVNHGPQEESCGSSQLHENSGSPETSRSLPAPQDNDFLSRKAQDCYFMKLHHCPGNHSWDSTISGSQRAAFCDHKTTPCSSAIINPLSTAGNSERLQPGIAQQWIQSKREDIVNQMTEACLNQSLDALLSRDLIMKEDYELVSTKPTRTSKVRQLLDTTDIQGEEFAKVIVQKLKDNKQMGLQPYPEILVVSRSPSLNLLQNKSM
# Experimental: Direct effects of compounds on RIP2 kinase activity was determined by autophosphorylation of full length human FLAG-6His tagged RIP2 expressed and purified from baculovirus. Enzyme was pre-incubated with compounds in assay buffer (50 mM HEPES pH 7.5, 25 mM MgCl2, 0.05%[w/v] CHAPS, 1 mM DTT and 0.05 mg/mL BSA) in 384-well plates, and then incubated with 10 µM ATP for 2 hours at room temperature. The amount of ADP generated was measured using the ADP-Glo universal ADP detection assay for kinases (Promega) and luminescence quantified on a ViewLux imager.
# NOD1 = target: T2, NOD1 (Homo sapiens, UniProt Q9Y239); test: iE-DAP-stimulated IL-8 release in 293/hNOD1 cells; type: cell-based
# T2 sequence (Q9Y239 1-953): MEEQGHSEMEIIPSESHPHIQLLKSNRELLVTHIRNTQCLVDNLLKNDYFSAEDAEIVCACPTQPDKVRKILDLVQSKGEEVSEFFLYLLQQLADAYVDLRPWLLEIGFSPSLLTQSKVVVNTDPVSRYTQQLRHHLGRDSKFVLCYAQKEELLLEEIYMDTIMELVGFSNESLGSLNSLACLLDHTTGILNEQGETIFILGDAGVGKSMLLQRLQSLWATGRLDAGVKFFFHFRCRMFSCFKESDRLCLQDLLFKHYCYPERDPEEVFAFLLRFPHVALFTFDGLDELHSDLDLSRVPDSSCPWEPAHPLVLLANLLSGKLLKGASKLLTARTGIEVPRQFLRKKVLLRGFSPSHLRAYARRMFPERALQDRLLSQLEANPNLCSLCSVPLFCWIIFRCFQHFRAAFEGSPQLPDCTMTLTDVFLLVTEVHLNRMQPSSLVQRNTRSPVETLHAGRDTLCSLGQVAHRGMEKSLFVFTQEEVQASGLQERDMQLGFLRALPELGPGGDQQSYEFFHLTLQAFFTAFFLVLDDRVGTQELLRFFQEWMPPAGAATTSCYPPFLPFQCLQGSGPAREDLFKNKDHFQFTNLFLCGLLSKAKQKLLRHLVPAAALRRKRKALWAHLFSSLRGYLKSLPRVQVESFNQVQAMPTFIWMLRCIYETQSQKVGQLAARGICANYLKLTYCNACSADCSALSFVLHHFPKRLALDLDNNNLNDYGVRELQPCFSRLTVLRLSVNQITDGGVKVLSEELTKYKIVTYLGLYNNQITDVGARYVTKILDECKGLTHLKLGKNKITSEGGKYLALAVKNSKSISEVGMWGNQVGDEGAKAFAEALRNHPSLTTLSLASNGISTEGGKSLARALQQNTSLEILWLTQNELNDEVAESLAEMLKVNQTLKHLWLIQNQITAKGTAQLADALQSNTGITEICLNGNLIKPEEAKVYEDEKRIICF
# Experimental: Inhibitors of iE-DAP-stimulated IL-8 release were screened in a 1536-well assay in which 293/hNOD1 cells (5000 cells/well) in DMEM high glucose medium supplemented with 0.1% FBS and 10 µg/mL Blasticidin S were stimulated with 60 ng/mL (200 nM) iE-DAP (EC80) in the presence of 10 µM compounds. After 24 hours the amount of IL-8 secreted into the medium was determined by homogeneous time resolved fluorescence (HTRF) assay by the direct addition of a 1∶1 mix of europium cryptate and XL665-conjugated anti-IL-8 antibodies according to the manufacturer’s instructions (Cisbio). Fluorescence was measured after 2 hours in a ViewLux imager using UMB-AMC excitation and 618–671 nm emission filters (Perkin Elmer). […] Inhibition of TNFR1-induced IL-8 release was performed with 293/hNOD1 cells stimulated with 20 ng/mL (∼EC95) rhTNFα.
# A high-throughput screen of about 2.2 million compounds was conducted for inhibitors of the NOD1 signaling pathway using suppression of iE-DAP stimulated IL-8 secretion in HEK293 cells stably expressing human NOD1 (293/hNOD1 cells). […] These assays were chosen to assess the selectivity of hits because the signaling pathways activated by these receptors converge at the level of the TAB/TAK1/IKK complex.
# endogenous NOD2 = target: T3, endogenous NOD2 (Homo sapiens, UniProt Q9HC29); test: MDP-stimulated IL-8 release in HCT116 cells; type: cell-based; conditions: for IC50: human colon carcinoma cells, IL-8 released into medium
# T3 construct: Compound activity on endogenous NOD1 and NOD2 receptors was determined; host or cells: HCT116
# T3 sequence (Q9HC29 whole entry): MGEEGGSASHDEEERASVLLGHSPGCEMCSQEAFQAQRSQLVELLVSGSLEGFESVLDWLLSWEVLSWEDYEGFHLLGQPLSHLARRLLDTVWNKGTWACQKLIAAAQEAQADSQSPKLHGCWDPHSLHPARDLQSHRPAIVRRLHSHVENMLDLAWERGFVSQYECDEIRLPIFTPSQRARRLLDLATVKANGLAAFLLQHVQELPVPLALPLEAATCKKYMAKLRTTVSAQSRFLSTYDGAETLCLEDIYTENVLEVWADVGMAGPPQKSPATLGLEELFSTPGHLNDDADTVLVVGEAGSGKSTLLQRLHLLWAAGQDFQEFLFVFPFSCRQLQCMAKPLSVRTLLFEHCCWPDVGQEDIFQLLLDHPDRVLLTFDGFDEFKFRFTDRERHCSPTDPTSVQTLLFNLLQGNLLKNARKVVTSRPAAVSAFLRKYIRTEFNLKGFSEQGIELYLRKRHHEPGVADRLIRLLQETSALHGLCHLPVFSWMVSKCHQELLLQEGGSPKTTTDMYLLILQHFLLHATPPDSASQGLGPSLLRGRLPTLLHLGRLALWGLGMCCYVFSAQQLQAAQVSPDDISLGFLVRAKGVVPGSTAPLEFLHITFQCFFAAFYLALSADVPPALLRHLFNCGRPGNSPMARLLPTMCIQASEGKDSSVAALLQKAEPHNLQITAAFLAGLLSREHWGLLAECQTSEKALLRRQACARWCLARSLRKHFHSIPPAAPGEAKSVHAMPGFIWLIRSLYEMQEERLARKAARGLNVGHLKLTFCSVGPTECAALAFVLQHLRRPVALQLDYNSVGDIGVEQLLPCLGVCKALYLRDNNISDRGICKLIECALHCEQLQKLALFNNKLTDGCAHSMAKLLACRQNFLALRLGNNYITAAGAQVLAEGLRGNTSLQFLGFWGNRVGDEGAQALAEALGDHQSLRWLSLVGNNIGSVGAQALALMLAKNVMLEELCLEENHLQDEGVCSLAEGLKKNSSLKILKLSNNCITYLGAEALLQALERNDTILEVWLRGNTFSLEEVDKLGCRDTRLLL
# Experimental: For assay, cells were seeded into 96 well plates (90,000 cells/well) in DMEM containing 1% FBS and pre-incubated with compounds for 1 hour before addition of either 25 µg/mL Tri-DAP or 1 µg/mL MDP. The level of IL-8 released into medium after 24-hour incubation was determined by HTRF assay (Cisbio) as described above and fluorescence measured on an Envision model 2102 multilabel plate reader (Perkin Elmer). The activity of compounds against NOD1-induced type I interferon response was determined by inhibition of Tri-DAP stimulated IP-10 secretion in HT-29 cells, maintained in the same medium as for HCT116 cells. The HT-29 cells were seeded into 96 well plates (60,000 cells/well) in DMEM with 1% FBS, pre-incubated with compounds for 1 hour and stimulated for 24 hours with 50 µg/mL Tri-DAP. The concentration of IL-8 released into the medium was measured by HTRF as above, IP-10 was measured using the IP-10/CXCL10 Quantikine ELISA kit (R&D Systems), and IFNβ was measured using the MA6000 human IFN-β tissue culture kit (Meso Scale Discovery).
# [2] = HEK293 stably expressing human NOD1, IL-8 released into medium, read-out: IC50 293/hNOD1 iE-DAP
Structure (SMILES),AGP binding (α1-acid glycoprotein) [%],chromatographic logD [1],solubility (CLND solubility) [µM],IC50 (full length human RIP2) [nM],IC50 (NOD1; [2]) [nM],"IC50 (NOD1; iE-DAP-stimulated IL-8 production in 293/hNOD1 cells, SAR figures, read-out: NOD1 XC50) [nM]",IC50 (endogenous NOD2) [nM],"greatest inhibition of MDP-stimulated IL-8 release (endogenous NOD2; HCT116, at high concentrations) [%]"
CCc1ccc(S(=O)(=O)Nc2cc(-n3c(C)nc4ccccc4c3=O)ccc2F)s1 [GSK223],80.81,4.27,327,> 50000,1000,,> 50000,30
Cc1nc2ccc(NC(=O)c3cccc(NS(=O)(=O)c4ccc(F)cc4)c3)cc2s1 [GSK966],83.38,4.64,41,> 100000,3500,,,
Cn1c(=O)[nH]c(=O)c2c1nc(CCSc1ccccc1)n2Cc1ccccc1 [SB711],,5.95,2,> 100000,600,,> 50000,

# More lines, now with the values ahead:
AGP binding (α1-acid glycoprotein) [%],chromatographic logD [1],solubility (CLND solubility) [µM],IC50 (full length human RIP2) [nM],IC50 (NOD1; [2]) [nM],"IC50 (NOD1; iE-DAP-stimulated IL-8 production in 293/hNOD1 cells, SAR figures, read-out: NOD1 XC50) [nM]",IC50 (endogenous NOD2) [nM],"greatest inhibition of MDP-stimulated IL-8 release (endogenous NOD2; HCT116, at high concentrations) [%]",Structure (SMILES)
85.71,4.89,14,> 50000,400,430 ± 100,,,Cc1ccc(S(=O)(=O)Nc2cccc(C(=O)Nc3ccc4nc(C)sc4c3)c2)cc1 [Compound 16]
,,,> 50000,60,,> 15000,,Cc1nc2ccccc2c(=O)n1-c1ccc(Cl)c(NS(=O)(=O)c2ccccc2F)c1 [Compound 22]
